Converted amounts (≈) assume the structure as drawn.
What was measured:
[1] = test system: Enterococcus spp.; experiment: minimum inhibitory concentration (MIC)
Protocol: (§1)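 Broth microdilution MIC (Sensititre BOPO7F bovine plate, CLSI methods) of 19 antimicrobials against field isolates of P. multocida, M. haemolytica, H. somni (deep nasopharyngeal swabs) and E. coli, Enterococcus spp. (rectal swabs) from weaned dairy heifers. Incubation 16-24 h at 35 C. MIC is the lowest concentration preventing visible growth. Values with <= or > lie at the tested range limits. Trimethoprim-sulfamethoxazole is given as the trimethoprim component of a 1:19 mixture.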

[2] = test system: Mannheimia haemolytica; experiment: minimum inhibitory concentration (MIC)
Protocol: as §1

CC1(C)S[C@@H]2[C@H](NC(=O)[C@H](N)c3ccccc3)C(=O)N2[C@H]1C(=O)O [Ampicillin]
minimum inhibitory concentration [µg/mL]
Settings	[1]	[2]
isolate (source animal id): 2	≤ 0.25	–
isolate (source animal id): 8	–	≤ 0.25
isolate (source animal id): 13	–	≤ 0.25
isolate (source animal id): 18	–	≤ 0.25
isolate (source animal id): 21	–	≤ 0.25
isolate (source animal id): 25	–	≤ 0.25
isolate (source animal id): 27	–	≤ 0.25
isolate (source animal id): 28	–	> 16
isolate (source animal id): 30	–	≤ 0.25
isolate (source animal id): 31	–	> 16
isolate (source animal id): 32	–	≤ 0.25
isolate (source animal id): 34	–	≤ 0.25
isolate (source animal id): 35	1 (≈ 2.86 µM)	–
isolate (source animal id): 36	–	≤ 0.25
isolate (source animal id): 37	–	≤ 0.25
isolate (source animal id): 40	–	≤ 0.25
isolate (source animal id): 41	–	≤ 0.25
isolate (source animal id): 42	1 (≈ 2.86 µM)	–
isolate (source animal id): 43	–	≤ 0.25
isolate (source animal id): 44	1 (≈ 2.86 µM)	–
isolate (source animal id): 46	–	≤ 0.25
isolate (source animal id): 49	–	≤ 0.25
isolate (source animal id): 50	–	> 16
isolate (source animal id): 51	–	≤ 0.25
isolate (source animal id): 52	–	≤ 0.25
isolate (source animal id): 53	–	≤ 0.25
isolate (source animal id): 55	–	≤ 0.25
isolate (source animal id): 56	–	≤ 0.25
isolate (source animal id): 57	–	≤ 0.25
isolate (source animal id): 79	1 (≈ 2.86 µM)	–
isolate (source animal id): 88	≤ 0.25	–
isolate (source animal id): 91	≤ 0.25	–
isolate (source animal id): 92	0.5 (≈ 1.43 µM)	–
isolate (source animal id): 100	–	≤ 0.25
isolate (source animal id): 103	–	≤ 0.25
isolate (source animal id): 107	–	≤ 0.25
isolate (source animal id): 108	–	≤ 0.25
isolate (source animal id): 111	≤ 0.25	–
isolate (source animal id): 112	–	≤ 0.25
isolate (source animal id): 113	–	≤ 0.25
isolate (source animal id): 121	–	> 16
isolate (source animal id): 122	1 (≈ 2.86 µM)	≤ 0.25
isolate (source animal id): 123	1 (≈ 2.86 µM)	0.5 (≈ 1.43 µM)
isolate (source animal id): 126	–	> 16
isolate (source animal id): 133	0.5 (≈ 1.43 µM)	≤ 0.25
isolate (source animal id): 135	–	≤ 0.25
isolate (source animal id): 138	–	> 16
isolate (source animal id): 141	–	≤ 0.25
isolate (source animal id): 142	–	≤ 0.25
isolate (source animal id): 145	–	≤ 0.25
isolate (source animal id): 149	–	≤ 0.25
isolate (source animal id): 151	–	≤ 0.25
isolate (source animal id): 152	–	≤ 0.25
isolate (source animal id): 154	–	≤ 0.25
isolate (source animal id): 158	1 (≈ 2.86 µM)	–
isolate (source animal id): 159	–	16 (≈ 45.8 µM)
isolate (source animal id): 162	–	8 (≈ 22.9 µM)
isolate (source animal id): 168	1 (≈ 2.86 µM)	–
isolate (source animal id): 169	1 (≈ 2.86 µM)	–
isolate (source animal id): 170	–	> 16
isolate (source animal id): 171	0.5 (≈ 1.43 µM)	≤ 0.25
isolate (source animal id): 172	–	> 16
isolate (source animal id): 173	–	> 16
isolate (source animal id): 175	1 (≈ 2.86 µM)	–
isolate (source animal id): 177	1 (≈ 2.86 µM)	–
isolate (source animal id): 179	–	> 16
isolate (source animal id): 180	–	> 16
isolate (source animal id): 181	1 (≈ 2.86 µM)	–
isolate (source animal id): 182	2 (≈ 5.72 µM)	–
isolate (source animal id): 183	1 (≈ 2.86 µM)	> 16
isolate (source animal id): 186	–	> 16
isolate (source animal id): 187	2 (≈ 5.72 µM)	> 16
isolate (source animal id): 188	–	> 16
isolate (source animal id): 190	2 (≈ 5.72 µM)	≤ 0.25
isolate (source animal id): 191	–	> 16
isolate (source animal id): 192	–	≤ 0.25
isolate (source animal id): 194	0.5 (≈ 1.43 µM)	–
isolate (source animal id): 195	1 (≈ 2.86 µM)	–
isolate (source animal id): 197	0.5 (≈ 1.43 µM)	–
isolate (source animal id): 201	–	> 16
isolate (source animal id): 202	–	> 16
isolate (source animal id): 209	–	> 16
isolate (source animal id): 211	1 (≈ 2.86 µM)	> 16
isolate (source animal id): 214	0.5 (≈ 1.43 µM)	–
isolate (source animal id): 220	–	> 16
isolate (source animal id): 221	–	16 (≈ 45.8 µM)
isolate (source animal id): 222	0.5 (≈ 1.43 µM)	–
isolate (source animal id): 223	0.5 (≈ 1.43 µM)	> 16
isolate (source animal id): 228	1 (≈ 2.86 µM)	–
isolate (source animal id): 230	2 (≈ 5.72 µM)	–
isolate (source animal id): 233	–	> 16
isolate (source animal id): 235	1 (≈ 2.86 µM)	–
isolate (source animal id): 236	0.5 (≈ 1.43 µM)	–
isolate (source animal id): 237	–	≤ 0.25
isolate (source animal id): 239	0.5 (≈ 1.43 µM)	–
isolate (source animal id): 241	2 (≈ 5.72 µM)	> 16
isolate (source animal id): 244	0.5 (≈ 1.43 µM)	–
isolate (source animal id): 246	1 (≈ 2.86 µM)	–
isolate (source animal id): 247	2 (≈ 5.72 µM)	–
isolate (source animal id): 250	0.5 (≈ 1.43 µM)	–
isolate (source animal id): 252	1 (≈ 2.86 µM)	≤ 0.25
isolate (source animal id): 253	–	≤ 0.25
isolate (source animal id): 259	–	16 (≈ 45.8 µM)
isolate (source animal id): 260	–	≤ 0.25
isolate (source animal id): 262	–	> 16
isolate (source animal id): 268	≤ 0.25	–
isolate (source animal id): 282	1 (≈ 2.86 µM)	> 16
isolate (source animal id): 285	1 (≈ 2.86 µM)	–
isolate (source animal id): 287	–	≤ 0.25
isolate (source animal id): 288	–	≤ 0.25
isolate (source animal id): 289	≤ 0.25	–
isolate (source animal id): 290	≤ 0.25	–
isolate (source animal id): 291	–	≤ 0.25
isolate (source animal id): 293	–	≤ 0.25
isolate (source animal id): 296	≤ 0.25	–
isolate (source animal id): 298	≤ 0.25	≤ 0.25
isolate (source animal id): 299	–	≤ 0.25
isolate (source animal id): 300	–	≤ 0.25
isolate (source animal id): 301	≤ 0.25	–
isolate (source animal id): 302	–	≤ 0.25
isolate (source animal id): 304	–	≤ 0.25
isolate (source animal id): 306	–	≤ 0.25
isolate (source animal id): 308	–	≤ 0.25
isolate (source animal id): 309	–	≤ 0.25
isolate (source animal id): 310	1 (≈ 2.86 µM)	–
isolate (source animal id): 313	–	≤ 0.25
isolate (source animal id): 318	–	≤ 0.25
isolate (source animal id): 320	≤ 0.25	≤ 0.25
isolate (source animal id): 321	–	≤ 0.25
isolate (source animal id): 323	–	≤ 0.25
isolate (source animal id): 324	–	≤ 0.25
isolate (source animal id): 326	–	≤ 0.25
isolate (source animal id): 328	–	≤ 0.25
isolate (source animal id): 329	–	≤ 0.25
isolate (source animal id): 331	≤ 0.25	–
isolate (source animal id): 333	≤ 0.25	≤ 0.25
isolate (source animal id): 335	–	≤ 0.25
isolate (source animal id): 338	–	≤ 0.25
isolate (source animal id): 341	0.5 (≈ 1.43 µM)	–

Reference: the supplement of paper PMC8612539
